Assay results from patent US7629334B1, “Mesoprogrestins (progesterone receptor modulations) as a component of compositions for hormone replacement therapy (HRT)” (Bayer Schering Pharma Aktiengesellschaft, priority 1999, dated 2009).

Columns and labels:
pregnant guinea pigs = test: Abortifacient (labor inducing) activity in pregnant guinea pigs; type: in vivo, guinea pig; conditions: for abortifacient activity ED50, guinea pig: treatment day 43-44 of pregnancy, autopsy day 50; for maximal abortion rate: up to 100 mg/kg/day
Protocol: In the guinea pig model which allows a good prediction of the effects in humans with respect to the abortifacient activity (Elger W, Beier S., Chwalisz K, Fähnrich M, Hasan S H, Henderson D, Neef G, Rohde R (1986): Studies on the mechanism of action of progesterone antagonists. J Steroid Biochem 25: 835-845) the mesoprogestins J 867, J 912, J 956, J 1042 lead up to 100 mg/kg/day to a maximal abortion rate of 20%.
(§1) The guinea pig is considered as relevant model of human gestation and parturition (Elger W, Fähnrich M, Beier S, Quing S S, Chwalisz K (1987). Endometrial and myometrial effects of progesterone antagonists in pregnant guinea pigs. Am J Obstet Gynecol 157: 1065-1074; Elger W, Neef G, Beier S, Fähnrich M, Gründel M, Heermann J, Malmendier A, Laurent D, Puri C P, Singh M M, Hasan S H, Becker H (1992). Evaluation of antifertility activities of antigestagens in animal model. In: Puri C P and Van Look P F A (eds), Current Concepts in Fertility Regulation and Reproduction. Wiley Eastern Limited, New Delhi, pp. 303-328; Elger W, Faehnrich M, Beier S, Qing S S, Chwalisz K (1986). Mechanism of action of progesterone antagonists in pregnant guinea pigs. Contraception 6: 47-62; Elger W, Chwalisz K, Faehnrich M, Hasan S H, Laurent D, Beier S, Ottow E, Neef G, Garfield R E (1990). Studies on labor-conditioning and labor-inducing effects of antiprogesterones in animal model. In: Garfield R E (eds), Norwell, pp. 153-175.) The mechanism of abortion of antiprogestins in this species is the initiation of labor and finally the expulsion of the conceptus. Abortifacient effects in the rat during very early pregnancy reflect inhibitory effects on nidation rather than initiation of uterine contractions. Studies in the rat model lead to “overestimation” of the potential of antiprogestins to terminate pregnancy in humans. Conversely, in the guinea pig model, irrespective of the antiprogestin doses, there were high rates of ongoing pregnancies similar to the situation in humans (Elger et al., Current Concepts in Fertility Regulation and Reproduction cited above). Furthermore, in both humans and guinea pigs, there is a strong synergism between antiprogestins and prostaglandins with respect the induction of labor (see the articles cited above and Elger W, Beier S (1983). Prostaglandine und Antigestagene für den Schwangerschaftsabbruch (Prostaglandins and antigestagens for pregnancy termination). German Patent DE 3337450 12; Van Look P, Bygdeman M (1989). Antiprogestational steroids: a new dimension in human fertility regulation. Oxford reviews of reproductive medicine 11: 2-60).
Pregnant guinea pigs were treated on days 43 and 44 of pregnancy and observed until day 50 of gestation. For the effects of various treatments see table 1 and FIG. 2. It is typical for this model that expulsions occur with a delay of several days after treatment. It can be seen that Mesoprogestins have a much reduced abortifacient activity compared to RU486. […] The differences with respect to abortifacient activity seem qualitative ones. It is not possible to overcome the low abortifacient activity of a Mesoprogestin by the use of a higher dose.

[1] = biological target: T1, progesterone receptor (PR) (Oryctolagus cuniculus, UniProt P06186); test: McPhail test, PR agonistic properties in estradiol-primed juvenile rabbits; type: in vivo, rabbit; conditions: for maximum effect, McPhail score: 4 days s.c. treatment, absence of progesterone, 0 = no transformation, 4 = complete transformation
T1 construct: from tissue; host or cells: endometrium of estradiol-primed juvenile rabbits, in vivo
T1 sequence (P06186 1-930): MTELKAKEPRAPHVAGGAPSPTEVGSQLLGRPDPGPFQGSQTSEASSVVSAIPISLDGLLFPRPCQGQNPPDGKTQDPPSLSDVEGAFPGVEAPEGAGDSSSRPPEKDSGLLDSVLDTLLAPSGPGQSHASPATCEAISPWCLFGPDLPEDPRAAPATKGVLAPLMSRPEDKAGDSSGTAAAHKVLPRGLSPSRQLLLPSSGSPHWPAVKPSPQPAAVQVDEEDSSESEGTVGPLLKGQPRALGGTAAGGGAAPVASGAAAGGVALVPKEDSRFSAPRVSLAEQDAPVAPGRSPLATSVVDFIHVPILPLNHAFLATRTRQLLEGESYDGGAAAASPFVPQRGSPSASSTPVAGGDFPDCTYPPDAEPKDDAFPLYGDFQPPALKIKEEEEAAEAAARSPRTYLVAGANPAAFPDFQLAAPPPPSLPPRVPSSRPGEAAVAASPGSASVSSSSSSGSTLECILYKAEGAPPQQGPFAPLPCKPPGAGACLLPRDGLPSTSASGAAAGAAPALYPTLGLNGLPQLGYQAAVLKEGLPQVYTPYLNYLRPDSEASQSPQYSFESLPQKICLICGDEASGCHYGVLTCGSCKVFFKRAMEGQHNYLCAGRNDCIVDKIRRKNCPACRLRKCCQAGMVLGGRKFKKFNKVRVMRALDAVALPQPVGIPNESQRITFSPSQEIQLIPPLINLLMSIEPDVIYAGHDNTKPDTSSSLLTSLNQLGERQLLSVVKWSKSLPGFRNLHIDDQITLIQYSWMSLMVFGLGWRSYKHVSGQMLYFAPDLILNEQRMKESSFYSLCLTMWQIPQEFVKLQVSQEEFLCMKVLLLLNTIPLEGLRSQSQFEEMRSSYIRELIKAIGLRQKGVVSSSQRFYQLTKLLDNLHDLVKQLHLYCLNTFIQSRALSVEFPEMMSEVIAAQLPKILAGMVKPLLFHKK
Protocol: In the classical bioassay, the McPhail test, assessing progestagenic and antiprogestagenic effects in rabbits (Selye H., Textbook of Endocrinology, 1947, pp. 345-346), progesterone produces a maximum McPhail score of 4 (by definition). […] The PR antagonistic and agonistic properties of mesoprogestins were assessed in estrogen-primed rabbits in the McPhail test according to Selye (Textbook of Endocrinology, 1947, pp. 345-346).

pregnant rats = test: Abortifacient activity in pregnant rats; type: in vivo, rat; conditions: treatment days 5-7 of pregnancy, autopsy day 9; * SAS, probit procedure
Source text: as §1

[2] = dose range 0.003-100 mg/rabbit s.c.

| maximum effect, McPhail score [1] | shape of dose response [1, 2] | dose inducing endometrial transformation ([1]; 4 days s.c.) [mg] | SMILES | abortifacient activity ED50, guinea pig (pregnant guinea pigs) | maximal abortion rate (pregnant guinea pigs) [%] | progestagenic effect compared with maximum effect of progesterone [1, 2] | abortifacient activity ED50, Rat (pregnant rats) |
| --- | --- | --- | --- | --- | --- | --- | --- |
| – | – | – | COC[C@]1(OC)CC[C@H]2[C@@H]3CCC4=CC(=O)CCC4=C3[C@@H](c3ccc(/C=N/O)cc3)C[C@@]21C [Compound J867, 4-[17βMethoxy-17α-(methoxymethyl)-3-oxoestra-4,9-dien-11β-yl]benzaldehyd-(1E)-oxim] | >100 mg/animal/day, s.c. | 20 | Neither mesoprogestin tested (J 1042, J867, J956) reached the maximum effect of progesterone | 0.65* mg/animal/day, s.c. |
| – | – | – | COCC1(O)CCC2C3CCC4=CC(=O)CCC4=C3C(c3ccc(C=NO)cc3)CC21C (stereo not drawn) [Compound J912, 4-[17β-Hydroxy-17α-(methoxymethyl)-3-oxoestra-4,9-dien-11β-yl]benzaldehyd-(1E)-oxim] | >100 mg/animal/day, s.c. | 20 | – | 0.36 mg/animal/day, s.c. |
| 1.5 | biphasic response | – | CCNC(=O)O/N=C/c1ccc([C@H]2C[C@@]3(C)[C@@H](CC[C@]3(COC)OC)[C@@H]3CCC4=CC(=O)CCC4=C32)cc1 [Compound J956, 4-[17β-Methoxy-17α-(methoxymethyl)-3-oxoestra-4,9-dien-11β-yl]benzaldehyd-(1E)-[O-(ethylamino)carbonyl]oxim] | 20 mg/animal/day, s.c. | 20 | Neither mesoprogestin tested (J 1042, J867, J956) reached the maximum effect of progesterone | 0.64* mg/animal/day, s.c. |
| – | – | – | CCSC(=O)O/N=C/c1ccc([C@H]2C[C@@]3(C)[C@@H](CC[C@]3(COC)OC)[C@@H]3CCC4=CC(=O)CCC4=C32)cc1 [Compound J1042, 4-[17β-Methoxy-17α-(methoxymethyl)-3-oxoestra-4,9-dien-11β-yl]benzaldehyd-(1E)-[O-(ethylthio)carbonyl]oxim] | >>100 mg/animal/day, s.c. | 20 | Neither mesoprogestin tested (J 1042, J867, J956) reached the maximum effect of progesterone | >10 mg/animal/day, s.c. |
| – | – | – | CN(C)c1ccc([C@H]2C[C@]3(C)[C@@H](CC[C@]3(O)CCCO)[C@@H]3CCC4=CC(=O)CCC4=C32)cc1 [Onapristone, onapristone, reference compound] | ca 3 mg/animal/day, s.c. | – | – | 1.71* mg/animal/day, s.c. |
| ~4 | – | ≥ 0.1 | CC(=O)[C@H]1CC[C@H]2[C@@H]3CCC4=CC(=O)CC[C@]4(C)[C@H]3CC[C@]12C [Progesterone, progesterone] | – | – | – | – |
| – | – | – | CC#C[C@]1(O)CC[C@H]2[C@@H]3CCC4=CC(=O)CCC4=C3[C@@H](c3ccc(N(C)C)cc3)C[C@@]21C [RU 486, reference compound] | 3.8 mg/animal/day, s.c. | – | – | 0.98* mg/animal/day, s.c. |
